Experiments:
[1] = Inhibition of Trypanosoma cruzi glucokinase
Hexokinase-4 = target: T1, Hexokinase-4 (Homo sapiens, UniProt P35557); assay: Inhibition of human hexokinase-4 at 20 uM relative to control
T1 sequence (P35557 whole entry): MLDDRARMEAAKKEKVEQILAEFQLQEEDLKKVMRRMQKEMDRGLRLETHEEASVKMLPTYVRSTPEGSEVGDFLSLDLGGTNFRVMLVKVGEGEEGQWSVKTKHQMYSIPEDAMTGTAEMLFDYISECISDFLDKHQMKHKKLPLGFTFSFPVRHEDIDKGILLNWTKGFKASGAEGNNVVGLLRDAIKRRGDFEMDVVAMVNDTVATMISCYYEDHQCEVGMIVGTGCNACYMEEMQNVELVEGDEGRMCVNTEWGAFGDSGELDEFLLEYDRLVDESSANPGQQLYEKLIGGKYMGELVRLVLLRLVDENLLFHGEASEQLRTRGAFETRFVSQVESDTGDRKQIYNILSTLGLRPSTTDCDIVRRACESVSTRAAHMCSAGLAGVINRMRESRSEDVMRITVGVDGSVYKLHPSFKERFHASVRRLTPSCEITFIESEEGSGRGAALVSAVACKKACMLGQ

Saccharomyces cerevisiae = assay: Inhibition of Saccharomyces cerevisiae G6PDH at 20 uM relative to control
Trypanosoma cruzi [2] = assay: Antitrypanosomal activity against intracellular Trypanosoma cruzi Tulahuen […] infected in mouse NIH/3T3 cells assessed as parasite growth inhibition; type: functional, organism-based; details: NIH3T3
[3] = Competitive inhibition of Trypanosoma cruzi glucokinase using D-glucose as substrate in presence of ATP by Lineweaver-Burk plot analysis
Trypanosoma cruzi [4] = assay: Competitive inhibition of Trypanosoma cruzi glucokinase assessed as Km using varying levels of D-glucose as substrate in presence of ATP by Lineweaver-Burk plot analysis
Trypanosoma cruzi [5] = assay: Competitive inhibition of Trypanosoma cruzi glucokinase assessed as Vmax using varying levels of D-glucose as substrate in presence of ATP by Lineweaver-Burk plot analysis
[6] = Inhibition of His6-tagged Trypanosoma cruzi glucokinase using D-glucose and ATP as substrates
Trypanosoma cruzi [7] = assay: Antitrypanosomal activity against Trypanosoma cruzi Tulahuen amastigotes infected in mouse NIH/3T3 cells assessed as parasite growth inhibition incubated for 4 days in glucose rich DMEM medium; type: functional, organism-based; details: NIH3T3, 96 h

| SMILES | Ki [1] [µM] | inhibition at 20 µM (Hexokinase-4) [%] | inhibition (Saccharomyces cerevisiae) [%] | IC50 (Trypanosoma cruzi [2]) [µM] | Ki [3] [µM] | Km (Trypanosoma cruzi [4]) [µM] | Vmax (Trypanosoma cruzi [5]) | IC50 (Trypanosoma cruzi [7]) [µM] | Ki [6] [µM] |
| --- | --- | --- | --- | --- | --- | --- | --- | --- | --- |
| O=C(N[C@@H]1C(O)O[C@H](CO)[C@@H](O)[C@@H]1O)c1ccccc1 (stereo partly specified) | > 500 | 55.5 | 0 | 43.5 | – | – | – | – | – |
| O=C(N[C@H]1C(O)O[C@H](CO)[C@@H](O)[C@@H]1O)c1ccoc1 (stereo partly specified) | 15.2 | 41.2 | 0 | 49.9 | 15.2 | 840 | 6.3 10^-5M/min | – | – |
| O=C(N[C@H]1C(O)O[C@H](CO)[C@@H](O)[C@@H]1O)c1ccccc1 (stereo partly specified) | – | 39.2 | 0.5 | – | – | – | – | 16.1 | 32 |
| O=C(N[C@H]1C(O)O[C@H](CO)[C@H](O)[C@@H]1O)c1ccoc1 (stereo partly specified) | > 500 | 47.2 | 0 | 36.4 | – | – | – | – | – |
| C[C@@H]1[C@H](O)[C@@H](C)/C=C/C=C/C=C/C=C/C=C/C=C/C=C/[C@H](O[C@@H]2O[C@H](C)[C@@H](O)[C@H](N)[C@@H]2O)C[C@@H]2O[C@](O)(C[C@@H](O)C[C@@H](O)[C@H](O)CC[C@@H](O)C[C@@H](O)CC(=O)O[C@H]1C)C[C@H](O)[C@H]2C(=O)O [AMPHOTERICIN B] | – | – | – | 1.85 | – | – | – | – | – |
| Cc1ccc(C(=O)N[C@@H]2C(O)O[C@H](CO)[C@@H](O)[C@@H]2O)o1 (stereo partly specified) | 481 | 48.8 | 0 | > 80 | – | – | – | – | – |
| O=C(N[C@H]1C(O)O[C@H](CO)[C@H](O)[C@@H]1O)c1ccccc1 (stereo partly specified) | > 500 | 37.8 | 0 | 55.3 | – | – | – | – | – |
| O=C(N[C@@H]1C(O)O[C@H](CO)[C@@H](O)[C@@H]1O)c1ccoc1 (stereo partly specified) | > 500 | 31.6 | 0 | 67.5 | – | – | – | – | – |

Now from value to compound, other results behind:

| Ki [1] [µM] | inhibition at 20 µM (Hexokinase-4) [%] | inhibition (Saccharomyces cerevisiae) [%] | IC50 (Trypanosoma cruzi [2]) [µM] | Ki [3] [µM] | Km (Trypanosoma cruzi [4]) [µM] | Vmax (Trypanosoma cruzi [5]) | IC50 (Trypanosoma cruzi [7]) [µM] | SMILES | Ki [6] [µM] |
| --- | --- | --- | --- | --- | --- | --- | --- | --- | --- |
| 320 | 27 | 0 | 38.4 | – | – | – | – | O=C(N[C@@H]1C(O)O[C@H](CO)[C@@H](O)[C@@H]1O)c1cccc(Br)c1 (stereo partly specified) | – |
| > 500 | 36.5 | 0 | 66.6 | – | – | – | – | O=C(N[C@H]1C(O)O[C@H](CO)[C@H](O)[C@@H]1O)c1cc2ccccc2o1 (stereo partly specified) | – |
| > 500 | 8.3 | 0 | 37.9 | – | – | – | – | O=C(N[C@H]1C(O)O[C@H](CO)[C@H](O)[C@@H]1O)c1ccc(CCl)cc1 (stereo partly specified) | – |
| 18 | 31.2 | 0 | 66.2 | – | – | – | – | O=C(N[C@H]1C(O)O[C@H](CO)[C@@H](O)[C@@H]1O)c1cccc(Br)c1 (stereo partly specified) | – |
| – | 2 | 0 | – | – | – | – | 48.7 | O=C(N[C@H]1C(O)O[C@H](CO)[C@@H](O)[C@@H]1O)OCc1ccccc1 (stereo partly specified) | 0.71 |
| > 500 | 12.4 | 0 | 42.5 | – | – | – | – | O=C(N[C@@H]1C(O)O[C@H](CO)[C@@H](O)[C@@H]1O)c1cc2ccccc2o1 (stereo partly specified) | – |
| 107 | 25.2 | 0 | 27.2 | 107 | 890 | 8.1 10^-5M/min | – | O=C(N[C@H]1C(O)O[C@H](CO)[C@@H](O)[C@@H]1O)c1cc2ccccc2o1 (stereo partly specified) | – |
| – | – | – | – | – | – | – | 1.12 | O=C(Cn1ccnc1[N+](=O)[O-])NCc1ccccc1 [BENZNIDAZOLE] | – |
| > 500 | 28.1 | 0 | 38.4 | – | – | – | – | O=C(N[C@@H]1C(O)O[C@H](CO)[C@@H](O)[C@@H]1O)c1ccc(CCl)cc1 (stereo partly specified) | – |
| > 500 | 35.8 | 0 | 52.9 | – | – | – | – | O=C(N[C@H]1C(O)O[C@H](CO)[C@@H](O)[C@@H]1O)c1ccc(CCl)cc1 (stereo partly specified) | – |
| > 500 | 29.8 | 0 | 19.9 | – | – | – | – | O=C(N[C@H]1C(O)O[C@H](CO)[C@H](O)[C@@H]1O)c1cccc(Br)c1 (stereo partly specified) | – |

— ChEMBL document CHEMBL4811314, “Synthesis, biochemical, and biological evaluation of C2 linkage derivatives of amino sugars, inhibitors of glucokinase from Trypanosoma cruzi” (Bioorg Med Chem Lett, 2021)
